Laboratory results: ChEMBL document CHEMBL1201862, “PubChem BioAssay data set” (2004)
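Values below derive from 48-hour exposures of cells grown in 96-well plates, with endpoints linearly interpolated between the two concentrations bracketing the appropriate inhibition level. GI50: concentration for 50% inhibition of growth.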 Calls of active or inactive are those of the source. Cut-off read from the data, not from the text of the source: active = GI50 up to about 1.1 µM and inactive = higher.

Legend:
Assay in all cases: NCI tumour cell line growth inhibition, 48 h
OVCAR-8 = test system: OVCAR-8
OVCAR-5 = test system: OVCAR-5
SW-620 = test system: SW-620
DMS-114 = test system: DMS-114
NCI-H23 = test system: NCI-H23
KM12 = test system: KM12
A549 = test system: A549
SK-MEL-2 = test system: SK-MEL-2
SNB-78 = test system: SNB-78
COLO 205 = test system: COLO 205
CCRF-CEM = test system: CCRF-CEM
M14 = test system: M14
786-0 = test system: 786-0
ACHN = test system: ACHN
SR = test system: SR

Measured: GI50

COC(=O)C(C/C=C(\C)c1ccccc1)C(C)=O (configuration not stated)
inactive: OVCAR-8 > 100 µM | OVCAR-5 > 100 µM | SW-620 > 100 µM | DMS-114 34.9 µM | NCI-H23 90.6 µM | KM12 58.2 µM | A549 53.1 µM | SK-MEL-2 52.7 µM | SNB-78 > 68.5 µM | COLO 205 > 81.8 µM | CCRF-CEM 40.9 µM

CC(=O)c1ccc(OCC(O)CO)cc1 (configuration not stated)
inactive: OVCAR-8 > 100 µM | M14 > 100 µM | OVCAR-5 > 100 µM | SW-620 14.9 µM | DMS-114 47 µM | NCI-H23 > 100 µM | KM12 > 100 µM | 786-0 25.6 µM | A549 94.2 µM | SNB-78 > 100 µM | COLO 205 35.6 µM | ACHN > 100 µM | CCRF-CEM > 100 µM

CCOC(=O)C12CCC(=O)C=C1[C@@H](C)C(=O)CC2 (some centres not stated)
inactive: OVCAR-8 > 100 µM | M14 > 100 µM | OVCAR-5 > 100 µM | SW-620 > 100 µM | DMS-114 > 100 µM | NCI-H23 > 100 µM | SR > 100 µM | KM12 > 100 µM | SK-MEL-2 > 100 µM | COLO 205 > 100 µM | ACHN > 100 µM

CCCCCCCCOCC(O)COC(=O)CCCCCCC (configuration not stated)
inactive: OVCAR-8 > 100 µM | M14 > 100 µM | OVCAR-5 > 100 µM | SW-620 > 100 µM | DMS-114 > 100 µM | NCI-H23 53.6 µM | SR 17.4 µM | 786-0 > 100 µM | A549 > 100 µM | COLO 205 79.3 µM | ACHN > 100 µM | CCRF-CEM 12.1 µM

Cc1ccc(NC(=O)C2C(=O)N(c3ccc(C)c(C)c3)C(=O)/C2=N\NC(N)=O)cc1C (configuration not stated)
inactive: OVCAR-8 62.2 µM | M14 > 100 µM | OVCAR-5 > 100 µM | SW-620 > 100 µM | DMS-114 56.9 µM | NCI-H23 42.8 µM | KM12 > 100 µM | 786-0 > 100 µM | A549 52.8 µM | SK-MEL-2 96.4 µM | SNB-78 > 100 µM | COLO 205 > 100 µM | ACHN > 100 µM | CCRF-CEM 73.8 µM

O=NN(CCF)C(=O)NC1CC2CCC1C2 (configuration not stated)
inactive: OVCAR-8 > 100 µM | OVCAR-5 > 100 µM | SW-620 > 100 µM | DMS-114 > 100 µM | NCI-H23 > 100 µM | KM12 > 100 µM | A549 > 100 µM | SK-MEL-2 > 100 µM | SNB-78 > 100 µM | COLO 205 > 100 µM | CCRF-CEM 38.3 µM

COC(=O)C(CC(=O)c1cc2c(cc1I)OCO2)Cc1cc(OC)c(OC)c(OC)c1I (configuration not stated)
inactive: OVCAR-8 > 100 µM | OVCAR-5 2.88 µM | SW-620 > 100 µM | DMS-114 22.8 µM | NCI-H23 45.6 µM | SR 8.69 µM | KM12 71.6 µM | 786-0 > 100 µM | A549 > 100 µM | SK-MEL-2 > 100 µM | COLO 205 > 100 µM | ACHN 80.4 µM | CCRF-CEM > 100 µM

O=c1c2cc([N+](=O)[O-])ccc2sc2ccsc12
inactive: OVCAR-8 > 100 µM | M14 > 100 µM | OVCAR-5 > 100 µM | SW-620 > 100 µM | DMS-114 > 100 µM | NCI-H23 > 100 µM | KM12 > 100 µM | 786-0 > 100 µM | A549 > 100 µM | SK-MEL-2 > 100 µM | SNB-78 > 100 µM | COLO 205 > 100 µM | ACHN > 100 µM | CCRF-CEM > 100 µM

Cc1ccc(C)c(NC(=O)C(=O)CC(=O)C2CCOC2=O)c1 (configuration not stated)
inactive: OVCAR-8 > 100 µM | M14 > 100 µM | OVCAR-5 > 100 µM | SW-620 > 100 µM | DMS-114 > 100 µM | NCI-H23 > 100 µM | KM12 > 100 µM | 786-0 > 100 µM | A549 > 100 µM | SK-MEL-2 > 100 µM | SNB-78 > 100 µM | COLO 205 > 100 µM | ACHN > 100 µM | CCRF-CEM > 100 µM

CC(=O)Nc1ccc(/C=C(\NC(=O)c2ccccc2)C(=O)NNS(=O)(=O)c2ccc(C)cc2)cc1
inactive: OVCAR-8 > 100 µM | M14 > 100 µM | OVCAR-5 > 100 µM | NCI-H23 > 100 µM | SR 20.1 µM | KM12 > 100 µM | 786-0 > 10 µM | A549 > 100 µM | SK-MEL-2 > 100 µM | SNB-78 > 100 µM | COLO 205 25.8 µM | ACHN > 100 µM | CCRF-CEM > 100 µM

COc1cccc(-c2nc3c(C(=O)NCCN(C)C)cccc3[nH]2)c1
inactive: OVCAR-8 15.7 µM | OVCAR-5 19.1 µM | SW-620 12.7 µM | DMS-114 15.3 µM | NCI-H23 19.2 µM | KM12 20.8 µM | A549 18.5 µM | SK-MEL-2 18.8 µM | SNB-78 40.4 µM | COLO 205 10 µM | CCRF-CEM 8.05 µM
